By MIC is commonly meant the least concentration at which growth counts as inhibited. A high value points to a need for much substance.

Some test systems named below: Escherichia coli K-12; Escherichia coli UB1005; Candida albicans.
Assay in all cases: ≥ marks a high value that may be exact or a test limit, other limits are often not marked, values filed in µg/mL are converted to µM
For assay [1], the system named is Escherichia coli ATCC 2592.
Assay [2] relates to Candida albicans ATCC 10231.
Assay [3] relates to Cryptococcus neoformans ATCC 32045.
Assay [4] relates to Pseudomonas aeruginosa ATCC 10145.
The test system of assay [5] is Staphylococcus aureus ATCC 33591.
For assay [6], the system named is Staphylococcus aureus JE2.
Assay [7] deals with Pseudomonas aeruginosa H187.
In assay [8] the test system is Salmonella enterica subsp. enterica serovar Choleraesuis CVCC 503.
Assay [9] relates to Enterococcus faecalis ATCC 29212.
Assay [10] concerns Salmonella enterica subsp. enterica serovar Typhimurium ATCC 14028.
Assay [11] deals with Staphylococcus aureus ATCC 29213.
Assay [12] relates to Staphylococcus epidermidis ATCC 12228.
Assay [13] deals with Pseudomonas aeruginosa PAO1.
The subject of assay [14] is Candida parapsilosis CGMCC 2.3989.
The test system of assay [15] is Candida tropicalis CGMCC 2.1975.
Assay [16] concerns Staphylococcus aureus ATCC 43300.
In assay [17] the test system is Staphylococcus aureus ATCC 25923.
Assay [18] has as its system Salmonella enterica subsp. enterica serovar Typhimurium C77-31.
Assay [19] deals with Pseudomonas aeruginosa ATCC 27853.
The subject of assay [20] is Staphylococcus aureus CCARM 3089.
Assay [21] deals with Enterococcus faecium ATCC 51559.
Assay [22] concerns Staphylococcus aureus CCARM 3090.
In assay [23] the test system is Escherichia coli KCTC 1682.
Assay [24] concerns Salmonella typhimurium KCTC 1926.
Assay [25] relates to Pseudomonas aeruginosa CCARM 2095.
In assay [26] the test system is Pseudomonas aeruginosa KCTC 1637.
In assay [27] the test system is Bacillus subtilis KCTC 3068.
For assay [28], the system named is Staphylococcus aureus KCTC 1621.
The subject of assay [29] is Staphylococcus aureus CCARM 3095.
The test system of assay [30] is Staphylococcus epidermidis KCTC 1917.

Values after ≈ are worked out from the molar mass of the structure shown. Where only a bound is given, the exact number is not on record here.

On to `C[C@H](NC(=O)[C@H](Cc1ccccc1)NC(=O)[C@H](CCCCN)NC(=O)[C@H](CCCCN)NC(=O)[C@H](C)NC(=O)[C@H](Cc1ccccc1)NC(=O)[C@H](CCCCN)NC(=O)[C@H](CCCCN)NC(=O)[C@H](C)NC(=O)[C@H](Cc1ccccc1)NC(=O)[C@H](CCCCN)NC(=O)[C@H](CCCCN)NC(=O)[C@H](C)NC(=O)[C@H](Cc1ccccc1)NC(=O)[C@H](CCCCN)NC(=O)[C@H](CCCCN)NC(=O)[C@H](C)NC(=O)[C@H](Cc1ccccc1)NC(=O)[C@H](CCCCN)NC(=O)[C@H](CCCCN)NC(=O)[C@H](C)NC(=O)[C@@H](N)Cc1ccccc1)C(=O)N[C@@H](CCCCN)C(=O)N[C@@H](CCCCN)C(=O)O` [FAKKFAKKFAKKFAKKFAKKFAKK], for which the MIC in assay [1] was 8.14 µM (≈ 23.3 µg/mL); in assay [2] it was 61.7 µM (≈ 177 µg/mL); in assay [3] it was 7.9 µM (≈ 22.6 µg/mL); in [4], 21.6 µM (≈ 62 µg/mL); in assay [5], at least 87.2 µM.

With `C[C@H](NC(=O)[C@H](CCCCN)NC(=O)[C@H](Cc1ccccc1)NC(=O)[C@H](C)NC(=O)[C@H](CCCCN)NC(=O)[C@H](Cc1ccccc1)NC(=O)[C@H](C)NC(=O)[C@H](CCCCN)NC(=O)[C@H](Cc1ccccc1)NC(=O)[C@H](C)NC(=O)[C@H](CCCCN)NC(=O)[C@H](Cc1ccccc1)NC(=O)[C@H](C)NC(=O)[C@H](CCCCN)NC(=O)[C@H](Cc1ccccc1)NC(=O)[C@H](C)NC(=O)[C@H](CCCCN)NC(=O)[C@H](Cc1ccccc1)NC(=O)[C@H](C)NC(=O)[C@H](CCCCN)NC(=O)[C@H](Cc1ccccc1)NC(=O)[C@H](C)NC(=O)[C@H](CCCCN)NC(=O)[C@@H](N)Cc1ccccc1)C(=O)O` [FKAFKAFKAFKAFKAFKAFKAFKA], the MIC in [1] was 8.11 µM (≈ 22.6 µg/mL); in assay [2], 127 µM (≈ 354 µg/mL); in [3] it was 8.11 µM (≈ 22.6 µg/mL); in assay [4] it was 8.96 µM (≈ 25 µg/mL); in [5], at least 179 µM.

For the compound `CC[C@H](C)[C@H](NC(=O)[C@@H](NC(=O)[C@H](CO)NC(=O)[C@H](C)NC(=O)[C@@H](NC(=O)CNC(=O)[C@H](CCCCN)NC(=O)[C@H](CCCCN)NC(=O)[C@@H](NC(=O)[C@@H](NC(=O)[C@H](CC(=O)O)NC(=O)[C@H](Cc1ccccc1)NC(=O)[C@H](CC(C)C)NC(=O)CN)C(C)C)[C@@H](C)CC)C(C)C)C(C)C)C(=O)NCC(=O)NCC(=O)N[C@@H](CC(C)C)C(=O)O` [GLFDVIKKGVASVIGGL], the MIC in [6] is at least 153 µM; in the assay with Escherichia coli K-12, at least 38.3 µM.

For `CC[C@H](C)[C@H](NC(=O)[C@H](Cc1ccccc1)NC(=O)[C@H](CO)NC(=O)[C@H](CCCCN)NC(=O)[C@H](Cc1c[nH]c2ccccc12)NC(=O)[C@@H](N)CCCCN)C(=O)N[C@@H](CCCCN)C(=O)N[C@@H](CC(N)=O)C(=O)N[C@@H](CC(C)C)C(=O)N[C@@H](CCC(=O)O)C(=O)N[C@@H](CCCCN)C(=O)N[C@H](C(=O)N[C@@H](CC(C)C)C(=O)N[C@@H](CCCCN)C(=O)N[C@@H](CCCCN)C(=O)NCC(=O)N1CCC[C@H]1C(=O)N[C@H](C(=O)N[C@@H](CC(C)C)C(=O)N[C@@H](C)C(=O)N[C@@H](CC(N)=O)C(=O)N[C@@H](CC(C)C)C(=O)N[C@H](C(=O)N[C@@H](CO)C(=O)N[C@H](C(=O)N[C@H](C(=O)O)C(C)C)[C@@H](C)CC)C(C)C)[C@@H](C)CC)C(C)C` [KWKSFIKNLEKVLKKGPILANLVSIV], the results for the minimum inhibitory concentration (MIC) (against Escherichia coli UB1005; in [7]) were 0.674 µM (≈ 2 µg/mL) and 2.7 µM (≈ 8 µg/mL), respectively.

Regarding `CC(C)C[C@H](NC(=O)[C@H](CCCN=C(N)N)NC(=O)[C@H](C)NC(=O)[C@H](CS)NC(=O)[C@H](CC(C)C)NC(=O)[C@H](CCCCN)NC(=O)[C@H](CCCCN)NC(=O)[C@H](CC(C)C)NC(=O)[C@H](CCCN=C(N)N)NC(=O)[C@H](C)NC(=O)[C@H](CS)NC(=O)[C@H](CC(C)C)NC(=O)[C@H](CCCCN)NC(=O)[C@H](CCCCN)NC(=O)[C@H](CC(C)C)NC(=O)[C@H](CCCN=C(N)N)NC(=O)[C@H](C)NC(=O)[C@H](CS)NC(=O)[C@H](CC(C)C)NC(=O)[C@H](CCCCN)NC(=O)[C@H](CCCCN)NC(=O)[C@@H](N)CC(C)C)C(=O)N[C@@H](CCCCN)C(=O)N[C@@H](CCCCN)C(=O)N[C@@H](CC(C)C)C(=O)N[C@@H](CS)C(=O)N[C@@H](C)C(=O)N[C@@H](CCCN=C(N)N)C(N)=O` [LKKLCARLKKLCARLKKLCARLKKLCAR], the minimal inhibitory concentration (MIC) in assay [8] was at least 64 µM; in assay [9], above 64 µM; in assay [10], above 64 µM; against Escherichia coli UB1005, 2 µM (≈ 6.54 µg/mL); in assay [11], above 64 µM; in assay [12], above 64 µM. Further, the MIC was above 64 µM in [13]; 4 µM (≈ 13.1 µg/mL) in assay [14]; 2 µM (≈ 6.54 µg/mL) in assay [15]; above 64 µM in [16]; above 64 µM in assay [17]; at least 64 µM in [18]. Further, the minimum inhibitory concentration (MIC) in [19] was above 64 µM; against Candida albicans it was 5.66 µM (≈ 18.5 µg/mL).

Turning to `CC[C@H](C)[C@@H]1NC(=O)[C@H]([C@@H](C)O)NC(=O)[C@H](Cc2cnc[nH]2)NC(=O)[C@H](CCCN=C(N)N)NC(=O)[C@H](C)NC(=O)[C@H](CCCN=C(N)N)NC(=O)[C@H](CC(C)C)NC(=O)[C@H](CO)NC(=O)[C@H](C)NC(=O)[C@@H](NC(=O)[C@H](CC(C)C)NC(=O)[C@@H](N)CC(N)=O)CSSC[C@@H](C(=O)N[C@@H](CCCN=C(N)N)C(=O)N[C@@H](CCCCN)C(=O)N[C@@H](Cc2ccccc2)C(=O)NCC(=O)N[C@@H](CCCN=C(N)N)C(=O)N[C@@H](CCCN=C(N)N)C(=O)O)NC(=O)[C@H](CCC(N)=O)NC(=O)[C@@H]2CCCN2C1=O` [NLCASLRARHTIPQCRKFGRR], the MIC is 12.5 µM (≈ 31 µg/mL) in assay [20]; 25 µM (≈ 62 µg/mL) in assay [21]; 25 µM (≈ 62 µg/mL) in assay [22]; 12.5 µM (≈ 31 µg/mL) in assay [23]; 12.5 µM (≈ 31 µg/mL) in assay [24]; at least 50 µM in assay [25]. The minimal inhibitory concentration (MIC) in [26], in assay [27], in assay [28], in assay [29] and in assay [30] was 12.5 µM (≈ 31 µg/mL) each time.
